The values that follow come from patent publication US10793557B2, “Sting agonist compounds” (Merck Sharp & Dohme Corp., priority 2018, dated 2020).

The target of one assay is T1, full-length WT STING (Homo sapiens, UniProt Q86WV6, H232R).
T1 construct: AviTag (after gg linker) (C); HRV3C cleavage site (after gs linker) (C); HIS8 (C); made in house; host or cells: Trichoplusia ni (Hi-Five) insect cells infected with baculovirus (virus generated and amplified in Sf21 cells); used as a washed membrane preparation
The assay can be described thus: 3H-cGAMP filtration binding assay (WT STING). Conditions: for EC50: competition with tritiated cGAMP, WT STING membrane. The essentials: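 EC50 values come from 4-parameter fits of remaining filter-bound tritium versus log concentration (10-point, 1:3 dilution). Insect-cell membranes carrying full-length WT STING were incubated 60 min at RT with compound and tritiated cGAMP (16 nM working stock) before filtration.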

A further assay has as its target T2, full-length HAQ STING (Homo sapiens, UniProt Q86WV6, G230A/H232R/R293Q/R71H).
T2 construct: AviTag (after GG linker) (C); HRV3C cleavage site (after GS linker) (C); HIS8 (C); made in house; host or cells: Trichoplusia ni (Hi-Five) insect cells infected with baculovirus (virus generated and amplified in Sf21 cells); used as a washed membrane preparation
The assay can be described thus: 3H-cGAMP filtration binding assay (HAQ STING). Conditions: competition with tritiated cGAMP, HAQ STING membrane. In outline: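 Hi-Five (T. ni) membranes overexpressing the STING variant (2.2 ug/ml working) preincubated with compound 60 min at RT in PBS, then [3H]cGAMP (8 nM working stock) added for 60 min at RT. Bound radioactivity captured on GF/B filters and counted by scintillation; EC50 from 4-parameter fit of control-normalized activity.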

Assay [1] deals with secretion of interferon-beta from THP1 cells. Briefly: IFN-β secretion in THP1 cell culture (5 h). The format is cell-based. Conditions: Homo sapiens, THP-1, 5 h, compound at 30 μM, 30 uM cGAMP = 100%, read-out: % Effect at 30 μM relative to 2′3′-cGAMP. The essentials:
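IFN-β in supernatant measured by AlphaLISA after a 5 h, 37 °C incubation of THP1 cells with compound (10 concentrations, 30000 down to 1.5 nM, 0.3% DMSO) in low-serum RPMI. Values scaled between DMSO and 30 uM cGAMP controls; 4-parameter curve fit yields EC50.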

T1 sequence (Q86WV6 with tags, fused parts or gaps H232R): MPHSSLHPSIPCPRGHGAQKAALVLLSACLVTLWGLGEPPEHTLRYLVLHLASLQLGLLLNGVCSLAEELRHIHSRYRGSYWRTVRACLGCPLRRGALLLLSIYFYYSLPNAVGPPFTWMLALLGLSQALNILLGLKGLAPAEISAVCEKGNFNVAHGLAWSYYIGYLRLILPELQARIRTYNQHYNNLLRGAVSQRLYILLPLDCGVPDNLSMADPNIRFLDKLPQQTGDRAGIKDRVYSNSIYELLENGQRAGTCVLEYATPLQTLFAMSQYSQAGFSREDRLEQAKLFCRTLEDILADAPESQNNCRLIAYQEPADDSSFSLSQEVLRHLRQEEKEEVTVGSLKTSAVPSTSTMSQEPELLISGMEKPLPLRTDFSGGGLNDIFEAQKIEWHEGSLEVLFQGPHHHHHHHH
T2 sequence (Q86WV6 with tags, fused parts or gaps R71H/G230A/H232R/R293Q): as the sequence (Q86WV6 with tags, fused parts or gaps H232R) above, with R71H, G230A, R293Q counted along it

As for `COc1cc2sc(C(=O)C[C@H](C)C(=O)O)cc2cc1CCCOc1nc2cc(C(=O)C[C@H](C)C(=O)O)sc2cc1OC` [Example 16, (S)-4-(5-(3-(2-((S)-3-carboxybutanoyl)-6-methoxybenzo [b]thiophen-5-yl)propoxy)-6-methoxythieno[3,2-b]pyridin-2-yl)-2-methyl-4-oxobutanoic acid], the EC50 at full-length WT STING turned out to be 51 nM; on full-length HAQ STING, 22 nM. The activation at 30 µM in assay [1] turned out to be 70%.

With `COc1cc2sc(C(=O)CCC(=O)O)cc2cc1OCCOc1nc2cc(C(=O)C[C@H](C)C(=O)O)sc2cc1OC` [Example 17, (S)-4-(5-(2-((2-(3-carboxypropanoyl)-6-methoxybenzo [b]thiophen-5-yl)oxy)ethoxy)-6-methoxythieno[3,2-b]pyridin-2-yl)-2-methyl-4-oxobutanoic acid], the values for the EC50 on full-length WT STING and at full-length HAQ STING were 299 nM and 52 nM, respectively. Also, in assay [1], the activation at 30 µM was 38%.

As for `COc1cc2sc(C(=O)CCC(=O)O)cc2cc1OCCCOc1nc2cc(C(=O)C[C@H](C)C(=O)O)sc2cc1OC` [Example 18, (S)-4-(5-(3-((2-(3-carboxypropanoyl)-6-methoxybenzo [b]thiophen-5-yl)oxy)propoxy)-6-methoxythieno [3,2-b]pyridin-2-yl)-2-methyl-4-oxobutanoic acid], the results for the EC50 at full-length WT STING and on full-length HAQ STING were 8 nM and 2 nM, respectively. Besides, the activation at 30 µM in assay [1] was 62%.

Turning to `COc1cc2sc(C(=O)C[C@H](C)C(=O)O)cc2nc1OCCOc1c(OC)cc2sc(C(=O)CCC(=O)O)cc2c1F` [Example 20, (S)-4-(5-(2-((2-(3-carboxypropanoyl)-4-fluoro-6-methoxybenzo[b]thiophen-5-yl)oxy)ethoxy)-6-methoxythieno[3,2-b]pyridin-2-yl)-2-methyl-4-oxobutanoic acid], the values for the EC50 at full-length WT STING and at full-length HAQ STING were 24 nM and 7 nM, respectively. In addition, in assay [1], the activation at 30 µM was 63%.

For the compound `COc1cc2sc(C(=O)C[C@H](C)C(=O)O)cc2nc1OCCCOc1c(OC)cc2sc(C(=O)CCC(=O)O)cc2c1F` [Example 21, (S)-4-(5-(3-((2-(3-carboxypropanoyl)-4-fluoro-6-methoxybenzo[b]thiophen-5-yl)oxy)propoxy)-6-methoxythieno[3,2-b]pyridin-2-yl)-2-methyl-4-oxobutanoic acid], the 50% effective concentration (EC50) on full-length WT STING was found to be 5 nM; on full-length HAQ STING, 1 nM. Further, the activation at 30 µM in assay [1] came to 59%.

Take `COc1cc2sc(C(=O)CCC(=O)O)cc2nc1OCCCOc1c(OC)cc2sc(C(=O)C[C@H](C)C(=O)O)cc2c1F` [Example 23, (S)-4-(5-(3-((2-(3-carboxypropanoyl)-6-methoxythieno [3,2-b]pyridin-5-yl)oxy)propoxy)-4-fluoro-6-methoxybenzo[b]thiophen-2-yl)-2-methyl-4-oxobutanoic acid]: the half-maximal effective concentration (EC50) amounted to 2 nM at full-length WT STING and 1 nM on full-length HAQ STING. The activation at 30 µM in assay [1] stood at 83%.

On to `COc1cc2sc(C(=O)CCC#N)cc2cc1CCCc1cc2cc(C(=O)CCC(=O)O)sc2cc1OC` [Example 24, 4-(5-(3-(2-(3-cyanopropanoyl)-6-methoxybenzo[b]thiophen-5-yl)propyl)-6-methoxybenzo[b]thiophen-2-yl)-4-oxobutanoic acid], for which, on full-length WT STING (at 20,000 nM compound), the inhibition at 20 µM was determined as 39%. Besides, at full-length HAQ STING, the half-maximal effective concentration (EC50) was determined as 17800 nM. For the same compound, the activation at 30 µM in assay [1] is 150%.

In the case of `COc1cc2sc(C(=O)CCC(=O)O)cc2cc1CCCc1cc2cc(C(=O)CCC(=O)O)sc2cc1OC` [Example 25, 4,4′-(5,5′-(propane-1,3-diyl)bis(6-methoxybenzo[b]thiophene-5,2-diyl))bis(4-oxobutanoic acid)], the concentration giving a half-maximal response (EC50) at full-length WT STING was found to be 23 nM; on full-length HAQ STING, 6 nM. Besides, the activation at 30 µM in assay [1] came out at 136%.

With `COc1cc(CCCc2cc3sc(C(=O)CCC(=O)O)cc3cc2OC)c2cc(C(=O)CCC(=O)O)sc2c1` [Example 26, 4-(4-(3-(2-(3-carboxypropanoyl)-5-methoxbenzo[b]thiophen-6-yl)propyl)-6-methoxybenzo[b]thiophen-2-yl)-4-oxobutanoic acid], the concentration giving a half-maximal response (EC50) on full-length WT STING is 19 nM; on full-length HAQ STING, 9 nM. Further, the activation at 30 µM in assay [1] came out at 129%.

For the compound `COc1cc2sc(C(=O)CCC(=O)O)nc2cc1CCCc1cc2nc(C(=O)CCC(=O)O)sc2cc1OC` [Example 27, 4,4′-(propane-1,3-diylbis(6-methoxybenzo[d]thiazole-5,2-diyl))bis(4-oxobutanoic acid)], the EC50 at full-length WT STING amounted to 362 nM; on full-length HAQ STING it was 89 nM. For the same compound, the activation at 30 µM in assay [1] amounted to 113%.

As for `Cc1cc2sc(C(=O)CCC(=O)O)cc2cc1CCCc1cc2cc(C(=O)CCC(=O)O)sc2cc1C` [Example 28, 4,4′-(propane-1,3-diylbis(6-methylbenzo[b]thiophene-5,2-diyl))bis(4-oxobutanoic acid)], the results for the concentration for a half-maximal effect (EC50) at full-length WT STING and on full-length HAQ STING were 112 nM and 46 nM, respectively. In addition, the activation at 30 µM in assay [1] stood at 116%.

With `COc1cc2sc(C(=O)CCC(=O)O)cc2cc1CCCc1nc2cc(C(=O)CCC(=O)O)sc2cc1OC` [Example 29, 4-(5-(3-(2-(3-carboxypropanoyl)-6-methoxybenzo [b]thiophen-5-yl)propyl)-6-methoxythieno[3,2-b]pyridin-2-yl)-4-oxobutanoic acid], the 50% effective concentration (EC50) at full-length WT STING worked out at 44 nM; on full-length HAQ STING, 8 nM. Moreover, in assay [1], the activation at 30 µM was 107%.

In the case of `COc1cc2sc(C(=O)CCC(N)=O)cc2cc1CCCc1cc2cc(C(=O)CCC(=O)O)sc2cc1OC` [Example 30, 4-(5-(3-(2-(4-amino-4-oxobutanoyl)-6-methoxybenzo[b]thiophen-5-yl)propyl)-6-methoxybenzo [b]thiophen-2-yl)-4-oxobutanoic acid], the EC50 was 7520 nM at full-length WT STING and 1000 nM on full-length HAQ STING. Further, the activation at 30 µM in assay [1] was 103%.

Take `COc1cc2sc(CC[C@H](C)C(=O)O)cc2cc1CCCc1cc2cc(C(=O)CCC(=O)O)sc2cc1OC` [Example 31, (S)-4-(5-(3-(2-(3-carboxybutyl)-6-methoxybenzo[b]thiophen-5-yl)propyl)-6-methoxybenzo[b]thiophen-2-yl)-4-oxobutanoic acid]: the values for the EC50 at full-length WT STING and on full-length HAQ STING were 9480 nM and 3320 nM, respectively. In assay [1], the activation at 30 µM amounted to 117%.

Take `COc1cc2sc(C(=O)CCC(=O)O)cc2cc1CCCOc1c(OC)cc2sc(C(=O)CCC(=O)O)cc2c1F` [Example 32, 4-(5-(3-((2-(3-carboxypropanoyl)-4-fluoro-6-methoxybenzo[b]thiophen-5-yl)oxy)propyl)-6-methoxybenzo [b]thiophen-2-yl)-4-oxobutanoic acid]: the EC50 on full-length WT STING came to 9 nM; at full-length HAQ STING, 4 nM. The activation at 30 µM in assay [1] came out at 117%.

In the case of `COc1cc2sc(C(=O)CCC(=O)O)cc2cc1CCCOc1c(OC)cc2sc(C(=O)C[C@H](C)C(=O)O)cc2c1F` [Example 33, (S)-4-(5-(3-(2-(3-carboxypropanoyl)-6-methoxybenzo [b]thiophen-5-yl)propoxy)-4-fluoro-6-methoxybenzo[b]thiophen-2-yl)-2-methyl-4-oxobutanoic acid], the EC50 came out at 4 nM at full-length WT STING and 1 nM on full-length HAQ STING. In assay [1], the activation at 30 µM was determined as 104%.

On to `COc1cc2sc(C(=O)CCC(=O)O)cc2cc1OCCOc1c(OC)cc2sc(C(=O)C[C@H](C)C(=O)O)cc2c1F` [Example 34, (S)-4-(5-(2-((2-(3-carboxypropanoyl)-6-methoxybenzo [b]thiophen-5-yl)oxy)ethoxy)-4-fluoro-6-methoxybenzo[b]thiophen-2-yl)-2-methyl-4-oxobutanoic acid], for which the half-maximal effective concentration (EC50) came out at 4 nM at full-length WT STING and 3 nM at full-length HAQ STING. In assay [1], the activation at 30 µM was found to be 72%.

On to `COc1cc2sc(C(=O)C[C@H](C)C(=O)O)cc2cc1CCCOc1c(OC)cc2sc(C(=O)CCC(=O)O)cc2c1F` [Example 35, (S)-4-(5-(3-((2-(3-carboxypropanoyl)-4-fluoro-6-methoxybenzo[b]thiophen-5-yl)oxy)propyl)-6-methoxybenzo[b]thiophen-2-yl)-2-methyl-4-oxobutanoic acid], for which the EC50 on full-length WT STING came out at 4 nM; at full-length HAQ STING it was 2 nM. Moreover, in assay [1], the activation at 30 µM turned out to be 80%.

`COc1cc2sc(C(=O)CCC(=O)O)cc2cc1OCCOc1c(OC)cc2sc(C(=O)CCC(=O)O)cc2c1F` [Example 36, 4-(5-(2-((2-(3-carboxypropanoyl)-4-fluoro-6-methoxybenzo[b]thiophen-5-yl)oxy)ethoxy)-6-methoxybenzo[b]thiophen-2-yl)-4-oxobutanoic acid]: the EC50 at full-length WT STING is 10 nM; at full-length HAQ STING, 4 nM. Also, the activation at 30 µM in assay [1] came out at 102%.
